Patent US20240124417A1, “COMPOUNDS USEFUL AS IMMUNOMODULATORS” (Bristol-Myers Squibb Company, priority 2019, published 2024)

Biological target: T1, PD-1/PD-L1 (Homo sapiens, UniProt Q9NZQ7)
T1 construct: TVMV protease site linker (C); made in house; host or cells: HEK293T cells
Experiment: PD-1/PD-L1 Homogenous Time-Resolved Fluorescence (HTRF) binding assay
Conditions: PD-L1-His 10 nM, PD-1-Ig 20 nM
Procedure, shortened: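 Time-resolved FRET read-out using Eu-cryptate anti-Ig (1 nM final) and APC anti-His (20 nM final). Tagged extracellular domains were used in BSA/Tween-20-supplemented dPBS, with compound pre-incubated 15 min with PD-L1-His (10 nM) before PD-1-Ig (20 nM) was added for 15 min. Other human pairs: PD-L2-His 5 nM with PD-1-Ig 20 nM; PD-L1-Ig 10 nM with CD80-His 100 nM.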

T1 sequence (Q9NZQ7 18-239): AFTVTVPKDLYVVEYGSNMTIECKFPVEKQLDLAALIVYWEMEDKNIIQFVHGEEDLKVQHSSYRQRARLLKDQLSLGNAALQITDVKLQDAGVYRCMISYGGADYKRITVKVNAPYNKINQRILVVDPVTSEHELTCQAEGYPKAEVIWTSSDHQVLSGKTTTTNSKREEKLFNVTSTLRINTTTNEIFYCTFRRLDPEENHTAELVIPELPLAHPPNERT

Structure (SMILES) | IC50 [nM]
Cc1c(COc2cc(OCc3cncc(C#N)c3)c(CN3CCc4[nH]cnc4C3)cc2Cl)cccc1-c1cccc(OCCCN2CC[C@@H](O)C2)c1C [Example 2515, (R)-5-((4-chloro-5-((3′-(3-(3-hydroxypyrrolidin-1-yl)propoxy)-2,2′-dimethyl-[1,1′-biphenyl]-3-yl)methoxy)-2-((1,4,6,7-tetrahydro-5H-imidazo[4,5-c]pyridin-5-yl)methyl)phenoxy)methyl)nicotinonitrile] | 3.8
Cc1c(COc2cc(OCc3cncc(C#N)c3)c(CNCCc3nc4cc(Cl)ccc4[nH]3)cc2Cl)cccc1-c1cccc(OCCCN2CC[C@@H](O)C2)c1C [Example 2516, (R)-5-((4-chloro-2-(((2-(5-chloro-1H-benzo[d]imidazol-2-yl)ethyl)amino)methyl)-5-((3′-(3-(3-hydroxypyrrolidin-1-yl)propoxy)-2,2′-dimethyl-[1,1′-biphenyl]-3-yl)methoxy)phenoxy)methyl)nicotinonitrile] | 4.5
Cc1c(COc2cc(OCc3cncc(C#N)c3)c(CN(C)CCc3nc4cc(Cl)ccc4[nH]3)cc2Cl)cccc1-c1cccc(OCCCN2CC[C@@H](O)C2)c1C [Example 2517, (R)-5-((4-chloro-2-(((2-(5-chloro-1H-benzo[d]imidazol-2-yl)ethyl)(methyl)amino)methyl)-5-((3′-(3-(3-hydroxypyrrolidin-1-yl)propoxy)-2,2′-dimethyl-[1,1′-biphenyl]-3-yl)methoxy)phenoxy)methyl)nicotinonitrile] | 12.4
Cc1c(COc2cc(OCc3cncc(C#N)c3)c(CN(C)CCc3cc[nH]n3)cc2Cl)cccc1-c1cccc(OCCCN2CC[C@@H](O)C2)c1C [Example 2518, (R)-5-((2-(((2-(1H-pyrazol-3-yl)ethyl)(methyl)amino)methyl)-4-chloro-5-((3′-(3-(3-hydroxypyrrolidin-1-yl)propoxy)-2,2′-dimethyl-[1,1′-biphenyl]-3-yl)methoxy)phenoxy)methyl)nicotinonitrile] | 4.4
Cc1c(COc2cc(OCc3cncc(C#N)c3)c(CNCCc3ncn[nH]3)cc2Cl)cccc1-c1cccc(OCCCN2CC[C@@H](O)C2)c1C [Example 2519, (R)-5-((2-(((2-(1H-1,2,4-triazol-5-yl)ethyl)amino)methyl)-4-chloro-5-((3′-(3-(3-hydroxypyrrolidin-1-yl)propoxy)-2,2′-dimethyl-[1,1′-biphenyl]-3-yl)methoxy)phenoxy)methyl)nicotinonitrile] | 1
Cc1c(COc2cc(OCc3cncc(C#N)c3)c(CNCc3csc(N)n3)cc2Cl)cccc1-c1cccc(OCCCN2CC[C@@H](O)C2)c1C [Example 2520, (R)-5-((2-((((2-aminothiazol-4-yl)methyl)amino)methyl)-4-chloro-5-((3′-(3-(3-hydroxypyrrolidin-1-yl)propoxy)-2,2′-dimethyl-[1,1′-biphenyl]-3-yl)methoxy)phenoxy)methyl)nicotinonitrile] | 3.1
Cc1c(COc2cc(OCc3cncc(C#N)c3)c(CN(C)Cc3csc(N)n3)cc2Cl)cccc1-c1cccc(OCCCN2CC[C@@H](O)C2)c1C [Example 2521, (R)-5-((2-((((2-aminothiazol-4-yl)methyl)(methyl)amino)methyl)-4-chloro-5-((3′-(3-(3-hydroxypyrrolidin-1-yl)propoxy)-2,2′-dimethyl-[1,1′-biphenyl]-3-yl)methoxy)phenoxy)methyl)nicotinonitrile] | 0.7
Cc1onc(-c2ccccc2)c1CNCc1cc(Cl)c(OCc2cccc(-c3cccc(OCCCN4CC[C@@H](O)C4)c3C)c2C)cc1OCc1cncc(C#N)c1 [Example 2522, (R)-5-((4-chloro-5-((3′-(3-(3-hydroxypyrrolidin-1-yl)propoxy)-2,2′-dimethyl-[1,1′-biphenyl]-3-yl)methoxy)-2-((((5-methyl-3-phenylisoxazol-4-yl)methyl)amino)methyl)phenoxy)methyl)nicotinonitrile] | 23.2
Cc1onc(-c2ccccc2)c1CN(C)Cc1cc(Cl)c(OCc2cccc(-c3cccc(OCCCN4CC[C@@H](O)C4)c3C)c2C)cc1OCc1cncc(C#N)c1 [Example 2523, (R)-5-((4-chloro-5-((3′-(3-(3-hydroxypyrrolidin-1-yl)propoxy)-2,2′-dimethyl-[1,1′-biphenyl]-3-yl)methoxy)-2-((methyl((5-methyl-3-phenylisoxazol-4-yl)methyl)amino)methyl)phenoxy)methyl)nicotinonitrile] | 178
Cc1c(COc2cc(OCc3cncc(C#N)c3)c(CNCc3cn[nH]c3)cc2Cl)cccc1-c1cccc(OCCCN2CC[C@@H](O)C2)c1C [Example 2524, (R)-5-((2-((((1H-pyrazol-4-yl)methyl)amino)methyl)-4-chloro-5-((3′-(3-(3-hydroxypyrrolidin-1-yl)propoxy)-2,2′-dimethyl-[1,1′-biphenyl]-3-yl)methoxy)phenoxy)methyl)nicotinonitrile] | 5.5
Cc1c(COc2cc(OCc3cncc(C#N)c3)c(CN(C)Cc3cn[nH]c3)cc2Cl)cccc1-c1cccc(OCCCN2CC[C@@H](O)C2)c1C [Example 2525, (R)-5-((2-((((1H-pyrazol-4-yl)methyl)(methyl)amino)methyl)-4-chloro-5-((3′-(3-(3-hydroxypyrrolidin-1-yl)propoxy)-2,2′-dimethyl-[1,1′-biphenyl]-3-yl)methoxy)phenoxy)methyl)nicotinonitrile] | 2.2
Cc1noc(C)c1CNCc1cc(Cl)c(OCc2cccc(-c3cccc(OCCCN4CC[C@@H](O)C4)c3C)c2C)cc1OCc1cncc(C#N)c1 [Example 2526, (R)-5-((4-chloro-2-((((3,5-dimethylisoxazol-4-yl)methyl)amino)methyl)-5-((3′-(3-(3-hydroxypyrrolidin-1-yl)propoxy)-2,2′-dimethyl-[1,1′-biphenyl]-3-yl)methoxy)phenoxy)methyl)nicotinonitrile] | 3
Cc1noc(C)c1CN(C)Cc1cc(Cl)c(OCc2cccc(-c3cccc(OCCCN4CC[C@@H](O)C4)c3C)c2C)cc1OCc1cncc(C#N)c1 [Example 2527, (R)-5-((4-chloro-2-((((3,5-dimethylisoxazol-4-yl)methyl)(methyl)amino)methyl)-5-((3′-(3-(3-hydroxypyrrolidin-1-yl)propoxy)-2,2′-dimethyl-[1,1′-biphenyl]-3-yl)methoxy)phenoxy)methyl)nicotinonitrile] | 5.4
Cc1cc(CNCc2cc(Cl)c(OCc3cccc(-c4cccc(OCCCN5CC[C@@H](O)C5)c4C)c3C)cc2OCc2cncc(C#N)c2)no1 [Example 2528, (R)-5-((4-chloro-5-((3′-(3-(3-hydroxypyrrolidin-1-yl)propoxy)-2,2′-dimethyl-[1,1′-biphenyl]-3-yl)methoxy)-2-((((5-methylisoxazol-3-yl)methyl)amino)methyl)phenoxy)methyl)nicotinonitrile] | 3.1
Cc1cc(CN(C)Cc2cc(Cl)c(OCc3cccc(-c4cccc(OCCCN5CC[C@@H](O)C5)c4C)c3C)cc2OCc2cncc(C#N)c2)no1 [Example 2529, (R)-5-((4-chloro-5-((3′-(3-(3-hydroxypyrrolidin-1-yl)propoxy)-2,2′-dimethyl-[1,1′-biphenyl]-3-yl)methoxy)-2-((methyl((5-methylisoxazol-3-yl)methyl)amino)methyl)phenoxy)methyl)nicotinonitrile] | 1.1
Cc1c(COc2cc(OCc3cncc(C#N)c3)c(CNCc3nccs3)cc2Cl)cccc1-c1cccc(OCCCN2CC[C@@H](O)C2)c1C [Example 2530, (R)-5-((4-chloro-5-((3′-(3-(3-hydroxypyrrolidin-1-yl)propoxy)-2,2′-dimethyl-[1,1′-biphenyl]-3-yl)methoxy)-2-(((thiazol-2-ylmethyl)amino)methyl)phenoxy)methyl)nicotinonitrile] | 6.2
Cc1c(COc2cc(OCc3cncc(C#N)c3)c(CNCc3cncs3)cc2Cl)cccc1-c1cccc(OCCCN2CC[C@@H](O)C2)c1C [Example 2531, (R)-5-((4-chloro-5-((3′-(3-(3-hydroxypyrrolidin-1-yl)propoxy)-2,2′-dimethyl-[1,1′-biphenyl]-3-yl)methoxy)-2-(((thiazol-5-ylmethyl)amino)methyl)phenoxy)methyl)nicotinonitrile] | 3.4
Cc1c(COc2cc(OCc3cncc(C#N)c3)c(CNCCc3c[nH]cn3)cc2Cl)cccc1-c1cccc(OCCCN2CC[C@@H](O)C2)c1C [Example 2532, (R)-5-((2-(((2-(1H-imidazol-4-yl)ethyl)amino)methyl)-4-chloro-5-((3′-(3-(3-hydroxypyrrolidin-1-yl)propoxy)-2,2′-dimethyl-[1,1′-biphenyl]-3-yl)methoxy)phenoxy)methyl)nicotinonitrile] | 4.8
Cc1c(COc2cc(OCc3cncc(C#N)c3)c(CN(C)Cc3nccs3)cc2Cl)cccc1-c1cccc(OCCCN2CC[C@@H](O)C2)c1C [Example 2533, (R)-5-((4-chloro-5-((3′-(3-(3-hydroxypyrrolidin-1-yl)propoxy)-2,2′-dimethyl-[1,1′-biphenyl]-3-yl)methoxy)-2-((methyl(thiazol-2-ylmethyl)amino)methyl)phenoxy)methyl)nicotinonitrile] | 2.7
Cc1c(COc2cc(OCc3cncc(C#N)c3)c(CN(C)Cc3cncs3)cc2Cl)cccc1-c1cccc(OCCCN2CC[C@@H](O)C2)c1C [Example 2534, (R)-5-((4-chloro-5-((3′-(3-(3-hydroxypyrrolidin-1-yl)propoxy)-2,2′-dimethyl-[1,1′-biphenyl]-3-yl)methoxy)-2-((methyl(thiazol-5-ylmethyl)amino)methyl)phenoxy)methyl)nicotinonitrile] | 3.4
Cc1c(COc2cc(OCc3cncc(C#N)c3)c(CN(C)CCc3c[nH]cn3)cc2Cl)cccc1-c1cccc(OCCCN2CC[C@@H](O)C2)c1C [Example 2535, (R)-5-((2-(((2-(1H-imidazol-4-yl)ethyl)(methyl)amino)methyl)-4-chloro-5-((3′-(3-(3-hydroxypyrrolidin-1-yl)propoxy)-2,2′-dimethyl-[1,1′-biphenyl]-3-yl)methoxy)phenoxy)methyl)nicotinonitrile] | 3.9
